According to patent publication US10899769B2, “Imidazopiperazinone inhibitors of transcription activating proteins” (Board of Regents, The University of Texas System, priority 2018, dated 2021):

How the values were obtained:
[1] = molecular target: GST-CBP(1081-1197) bromodomain (Homo sapiens (Human), UniProt Q92793); test: CBP AlphaScreen Assay; conditions: binding to biotin-H4(1-21) Ac-K5/8/12/16
Method in brief: (§1)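 AlphaScreen binding of GST-bromodomain to biotin-H4(1-21) Ac-K5/8/12/16: 5 nM CBP with 20 nM peptide, or 2.5 nM BRD4 with 10 nM peptide, in 50 mM HEPES 7.5, […], 1 mM TCEP, 0.003% Tween-20. Compound preincubated 30 min, then beads 2 h, room temperature. IC50 from variable-slope fit.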

BRD4(49-170) bromodomain = BRD4(49-170) bromodomain (Homo sapiens (Human), UniProt O60885); test: BRD4 AlphaScreen Assay; conditions: binding to biotin-H4(1-21) Ac-K5/8/12/16
Method in brief: as §1

Chain of GST-CBP(1081-1197) bromodomain (Q92793 1081-1197): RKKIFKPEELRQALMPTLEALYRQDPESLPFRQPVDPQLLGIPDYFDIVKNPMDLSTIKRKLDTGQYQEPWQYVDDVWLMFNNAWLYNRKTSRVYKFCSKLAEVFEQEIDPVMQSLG

SMILES | IC50 [1] | IC50 (BRD4(49-170) bromodomain)
CC1C(=O)N(C)Cc2c(-c3cccc4nc(-c5noc(=O)[nH]5)c(C(F)F)cc34)nc(C3CC3)n21 (single isomer, unassigned) [Example 45b, 3-(5-(3-Cyclopropyl-5,7-dimethyl-6-oxo-5,6,7,8-tetrahydroimidazo[1,5-a]pyrazin-1-yl)-3-(difluoromethyl)quinolin-2-yl)-1,2,4-oxadiazol-5(4H)-one] | 29 nM | 5400 nM
CC1C(=O)N(C)Cc2c(-c3c(F)ccc4nc(-c5cnn(C)c5)c(C(F)F)cc34)nc(C3CCOCC3)n21 (single isomer, unassigned) [Example 36b, 1-(3-(Difluoromethyl)-6-fluoro-2-(1-methyl-1H-pyrazol-4-yl)quinolin-5-yl)-5,7-dimethyl-3-(tetrahydro-2H-pyran-4-yl)-7,8-dihydroimidazo[1,5-a]pyrazin-6(5H)-one] | 144 nM | ≥ 25000 nM
CC1C(=O)N(C)Cc2c(-c3cccc4cc(-c5ncco5)ncc34)nc(C3CC3)n21 (centres unmarked) [Example 66, 3-cyclopropyl-5,7-dimethyl-1-(3-(oxazol-2-yl)isoquinolin-8-yl)-7,8-dihydroimidazo[1,5-a] pyrazin-6(5H)-one] | 11 nM | 1590 nM
CNC(=O)N1CC(c2nc(-c3cccc4nc(-c5cnn(C)c5)c(C(F)F)cc34)c3n2C(C)C(=O)N(C)C3)C1 (centres unmarked) [Example 24, 3-(1-(3-(Difluoromethyl)-2-(1-methyl-1H-pyrazol-4-yl)quinolin-5-yl)-5,7-dimethyl-6-oxo-5,6,7,8-tetrahydroimidazo[1,5-a]pyrazin-3-yl)-N-methylazetidine-1-carboxamide] | 81 nM | 4890 nM
CN1Cc2c(-c3cccc4nc(-c5cnn(C)c5)c(C(F)(F)F)cc34)nc(C3CCOCC3)n2CC1=O [Example 95, 7-methyl-1-(2-(1-methyl-1H-pyrazol-4-yl)-3-(trifluoromethyl)quinolin-5-yl)-3-(tetrahydro-2H-pyran-4-yl)-7,8-dihydroimidazo[1,5-a] pyrazin-6(5H)-one] | 31 nM | 10600 nM
CC1C(=O)N(C)Cc2c(-c3ccc4c(c3)c(-c3cnn(C)c3)nn4C)nc(C3CCOCC3)n21 (centres unmarked) [Example 40, 5,7-Dimethyl-1-(1-methyl-3-(1-methyl-1H-pyrazol-4-yl)-1H-indazol-5-yl)-3-(tetrahydro-2H-pyran-4-yl)-7,8-dihydroimidazo[1,5-a]pyrazin-6(5H)-one] | 9 nM | 1040 nM
CC1C(=O)N(C)Cc2c(-c3c(F)ccc4nc(-c5cnn(C)c5)c(C(F)(F)F)cc34)nc(C3CCOCC3)n21 (centres unmarked) [Example 35, 1-(6-Fluoro-2-(1-methyl-1H-pyrazol-4-yl)-3-(trifluoromethyl)quinolin-5-yl)-5,7-dimethyl-3-(tetrahydro-2H-pyran-4-yl)-7,8-dihydroimidazo[1,5-a]pyrazin-6(5H)-one] | 1200 nM | 25000 nM
CC1C(=O)N(C)Cc2c(-c3cccc4cc(C5=CCOCC5)ncc34)nc(C3CC3)n21 (stereo not drawn) [Example 55, 3-cyclopropyl-l-(3-(3,6-dihydro-2H-pyran-4-yl)isoquinolin-8-yl)-5,7-dimethyl-7,8-dihydroimidazo[1,5-a] pyrazin-6(5H)-one] | 2 nM | 392 nM
CC1C(=O)N(C)Cc2c(-c3cccc4nc(-c5cnn(C)c5)c(C(F)F)cc34)nc(C3CCN(S(C)(=O)=O)CC3)n21 (centres unmarked) [Example 83, 1-(3-(difluoromethyl)-2-(1-methyl-1H-pyrazol-4-yl)quinolin-5-yl)-5,7-dimethyl-3-(1-(methylsulfonyl)piperidin-4-yl)-7,8-dihydroimidazo[1,5-a] pyrazin-6(5H)-one] | 42 nM | 3230 nM
CC1C(=O)N(C)Cc2c(-c3cccc4cc(-c5noc(=O)[nH]5)ncc34)nc(C3CC3)n21 (single isomer, unassigned) [Example 44b, 3-(8-(3-Cyclopropyl-5,7-dimethyl-6-oxo-5,6,7,8-tetrahydroimidazo[1,5-a]pyrazin-1-yl)isoquinolin-3-yl)-1,2,4-oxadiazol-5(4H)-one] | 1 nM | 1460 nM
C[C@H]1C(=O)N(C)Cc2c(-c3cccc4nc(-c5cnn(C)c5)c(C(F)F)cc34)nc(C3CC3)n21 [Example 110a, (S)-3-cyclopropyl-1-(3 (difluoromethyl)-2-(1-methyl-1H-pyrazol-4-yl)quinolin-5-yl)-5,7-dimethyl-7,8-dihydroimidazo[1,5-a] pyrazin-6(5H)-one] | 453 nM | 9250 nM
CC1C(=O)N(C)Cc2c(-c3c(F)ccc4cc(C5CCOCC5)ncc34)nc(C3CCOCC3)n21 (single isomer, unassigned) [Example 34b, 1-(7-Fluoro-3-(tetrahydro-2H-pyran-4-yl)isoquinolin-8-yl)-5,7-dimethyl-3-(tetrahydro-2H-pyran-4-yl)-7,8-dihydroimidazo[1,5-a]pyrazin-6(5H)-one] | 8 nM | 1230 nM
CC1C(=O)N(C)Cc2c(-c3cccc4nc(-c5noc(=O)[nH]5)c(C(F)F)cc34)nc(C3CC3)n21 (single isomer, unassigned) [Example 45a, 3-(5-(3-Cyclopropyl-5,7-dimethyl-6-oxo-5,6,7,8-tetrahydroimidazo[1,5-a]pyrazin-1-yl)-3-(difluoromethyl)quinolin-2-yl)-1,2,4-oxadiazol-5(4H)-one] | 1 nM | 112 nM
CC1C(=O)N(C)Cc2c(-c3cccc4nc(-c5cnn(C)c5)c(C(F)F)cc34)nc(C3(C)CCOCC3)n21 (single isomer, unassigned) [Example 32a, 1-(3-(Difluoromethyl)-2-(1-methyl-1H-pyrazol-4-yl)quinolin-5-yl)-5,7-dimethyl-3-(4-methyltetrahydro-2H-pyran-4-yl)-7,8-dihydroimidazo[1,5-a]pyrazin-6(5H)-one] | 490 nM | ≥ 25000 nM
CC1C(=O)N(C)Cc2c(-c3cccc4cc(-c5ccn(C)n5)ncc34)nc(C3CCOCC3)n21 (centres unmarked) [Example 85, 5,7-dimethyl-1-(3-(1-methyl-1H-pyrazol-3-yl)isoquinolin-8-yl)-3-(tetrahydro-2H-pyran-4-yl)-7,8-dihydroimidazo[1,5-a] pyrazin-6(5H)-one] | 78 nM | 24100 nM
Cc1ccc2cc(-c3ccn(C)n3)ncc2c1-c1nc(C2CCOCC2)n2c1CN(C)C(=O)C2C (centres unmarked) [Example 105, 5,7-dimethyl-1-(7-methyl-3-(1-methyl-1H-pyrazol-3-yl)isoquinolin-8-yl)-3-(tetrahydro-2H-pyran-4-yl)-7,8-dihydroimidazo[1,5-a] pyrazin-6(5H)-one] | 27 nM | 3480 nM
Cc1cn(-c2cc3cccc(-c4nc(C5CC5)n5c4CN(C)C(=O)C5C)c3cn2)nc1C (centres unmarked) [Example 72, 3-cyclopropyl-1-(3-(3,4-dimethyl-1H-pyrazol-1-yl)isoquinolin-8-yl)-5,7-dimethyl-7,8-dihydroimidazo[1,5-a] pyrazin-6(5H)-one] | 2 nM | 297 nM
Cc1cn(-c2nc3cccc(-c4nc(C5CC5)n5c4CN(C)C(=O)C5C)c3cc2C(F)F)cn1 (centres unmarked) [Example 11, 3-cyclopropyl-1-(3-(difluoromethyl)-2-(4-methyl-1H-imidazol-1-yl)quinolin-5-yl)-5,7-dimethyl-7,8-dihydroimidazo[1,5-a]pyrazin-6(5H)-one] | 4 nM | 268 nM
CC1C(=O)N(C)Cc2c(-c3cccc4nc(C5=CCOCC5)c(C(F)F)cc34)nc(C3CC3)n21 (centres unmarked) [Example 9, 3-Cyclopropyl-1-(3-(difluoromethyl)-2-(3,6-dihydro-2H-pyran-4-yl)quinolin-5-yl)-5,7-dimethyl-7,8-dihydroimidazo[1,5-a]pyrazin-6(5H)-one] | 3 nM | 366 nM
CC1C(=O)N(C)Cc2c(-c3cccc4cc(-c5cn(C)cn5)ncc34)nc(C3CC3)n21 (centres unmarked) [Example 76, 3-cyclopropyl-5,7-dimethyl-1-(3-(1-methyl-1H-imidazol-4-yl)isoquinolin-8-yl)-7,8-dihydroimidazo[1,5-a] pyrazin-6(5H)-one] | 2 nM | 384 nM
COCCN1CCC(c2nc(-c3cccc4nc(-c5cnn(C)c5)c(C(F)F)cc34)c3n2C(C)C(=O)N(C)C3)CC1 (centres unmarked) [Example 82, 1-(3-(difluoromethyl)-2-(1-methyl-1H-pyrazol-4-yl)quinolin-5-yl)-3-(1-(2-methoxyethyl)piperidin-4-yl)-5,7-dimethyl-7,8-dihydroimidazo[1,5-a] pyrazin-6(5H)-one] | 227 nM | 12300 nM
CC1C(=O)N(C)Cc2c(-c3cccc4nc(-c5cnn(C)c5)c(C(F)(F)F)cc34)nc(C3CCOCC3)n21 (single isomer, unassigned) [Example 26b, 5,7-Dimethyl-1-(2-(1-methyl-1H-pyrazol-4-yl)-3-(trifluoromethyl)quinolin-5-yl)-3-(tetrahydro-2H-pyran-4-yl)-7,8-dihydroimidazo[1,5-a]pyrazin-6(5H)-one] | 271 nM | 11700 nM
CC1C(=O)N(C)Cc2c(-c3cccc4cc(N5CCOCC5)ncc34)nc(C3CCOCC3)n21 (single isomer, unassigned) [Example 16a, 5,7-Dimethyl-1-(3-morpholinoisoquinolin-8-yl)-3-(tetrahydro-2H-pyran-4-yl)-7,8-dihydroimidazo[1,5-a]pyrazin-6(5H)-one] | 1120 nM | ≥ 25000 nM
CCN1Cc2c(N3CCCc4cc(-c5cnn(C)c5)c(C(F)F)cc43)nc(C3CC3)n2CC1=O [Example 4, 3-Cyclopropyl-1-(7-(difluoromethyl)-6-(1-methyl-1H-pyrazol-4-yl)-3,4-dihydroquinolin-1(2H)-yl)-7-ethyl-7,8-dihydroimidazo[1,5-a]pyrazin-6(5H)-one] | 6 nM | 17600 nM
Cc1ncc(-c2nc3cccc(-c4nc(C5CC5)n5c4CN(C)C(=O)C5C)c3cc2C(F)F)s1 (centres unmarked) [Example 68, 3-cyclopropyl-1-(3-(difluoromethyl)-2-(2-methylthiazol-5-yl)quinolin-5-yl)-5,7-dimethyl-7,8-dihydroimidazo[1,5-a] pyrazin-6(5H)-one] | 5 nM | 163 nM
